Test results reported in PMC4192288 (Endocrinology, 2013).

Molecular target: T1, 11β-hydroxysteroid dehydrogenase type 1 (11β-HSD1) (Mus musculus, UniProt P50172)
T1 construct: gene Hsd11b1; recombinant 11β-HSD1
Test: HTRF cortisol competitive assay with recombinant […]β-HSD1; also […] ex vivo inhibition in mouse liver
Type: biochemical

T1 sequence (P50172 whole entry): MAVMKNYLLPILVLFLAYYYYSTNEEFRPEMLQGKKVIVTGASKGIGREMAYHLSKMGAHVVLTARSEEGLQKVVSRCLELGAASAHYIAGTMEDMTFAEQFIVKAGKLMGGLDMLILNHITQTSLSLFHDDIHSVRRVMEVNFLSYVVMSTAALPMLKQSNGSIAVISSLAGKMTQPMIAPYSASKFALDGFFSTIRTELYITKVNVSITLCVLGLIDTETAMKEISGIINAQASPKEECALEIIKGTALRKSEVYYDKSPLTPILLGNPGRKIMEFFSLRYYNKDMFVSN

## F[C@H]1C[C@](c2ccc(Cl)cc2)(c2nnc(C3CC3)n2C2CC2)C1 [MK-0916, 3-[1-(4-chlorophenyl)-3-fluorocyclobutyl]-4,5-dicyclopropyl-1,2,4-triazole]
  IC50: 30 nM
